Results taken from ChEMBL document CHEMBL4376834, “Discovery of 4H-Chromen-4-one Derivatives as a New Class of Selective Rho Kinase (ROCK) Inhibitors, which Showed Potent Activity in ex Vivo Diabetic Retinopathy Models” (J Med Chem, 2019).

Experiments:
[1] = biological target: Serine/threonine-protein kinase MARK2 (Homo sapiens, UniProt Q7KZI7); assay: Inhibition of recombinant full-length human PAR1Balpha using KKKVSRSGLYRSP as substrate measured after 40 mins in presence of [gamma33P]ATP by radiometric scintillation counting analysis
[2] = biological target: cAMP-dependent protein kinase catalytic subunit beta (Homo sapiens, UniProt P22694); assay: Inhibition of recombinant full length human PKAcbeta using KEAKEKRQEQIAKR as substrate incubated for 40 mins in presence of [gamma33P]ATP by radiometric scintillation counting analysis
[3] = biological target: Mitogen-activated protein kinase kinase kinase 2 (Homo sapiens, UniProt Q9Y2U5); assay: Inhibition of recombinant full length human MEKK2 using myelin basic protein as substrate incubated for 40 mins in presence of [gamma-33ATP by radiometric scintillation counting analysis
[4] = biological target: Serine/threonine-protein kinase VRK1 (Homo sapiens, UniProt Q99986); assay: Inhibition of human VRK1 in presence of 10 uM ATP by radiometric analysis
Chain of Serine/threonine-protein kinase VRK1 (Q99986 whole entry): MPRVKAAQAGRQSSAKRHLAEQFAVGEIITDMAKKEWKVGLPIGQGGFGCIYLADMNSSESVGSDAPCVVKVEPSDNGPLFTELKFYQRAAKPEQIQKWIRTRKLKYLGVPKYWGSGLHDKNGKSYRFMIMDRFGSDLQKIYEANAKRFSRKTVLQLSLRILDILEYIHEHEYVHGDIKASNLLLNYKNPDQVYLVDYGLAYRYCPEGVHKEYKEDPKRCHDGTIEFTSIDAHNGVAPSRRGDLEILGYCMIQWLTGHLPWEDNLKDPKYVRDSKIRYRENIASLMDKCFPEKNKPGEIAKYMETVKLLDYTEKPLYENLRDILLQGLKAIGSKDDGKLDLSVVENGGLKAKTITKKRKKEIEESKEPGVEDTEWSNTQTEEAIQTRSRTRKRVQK

[5] = biological target: Serine/threonine-protein kinase 16 (Homo sapiens, UniProt O75716); assay: Inhibition of human STK16 in presence of 10 uM ATP by radiometric analysis
Chain of Serine/threonine-protein kinase 16 (O75716 whole entry, the tested form may be a part, canonical isoform): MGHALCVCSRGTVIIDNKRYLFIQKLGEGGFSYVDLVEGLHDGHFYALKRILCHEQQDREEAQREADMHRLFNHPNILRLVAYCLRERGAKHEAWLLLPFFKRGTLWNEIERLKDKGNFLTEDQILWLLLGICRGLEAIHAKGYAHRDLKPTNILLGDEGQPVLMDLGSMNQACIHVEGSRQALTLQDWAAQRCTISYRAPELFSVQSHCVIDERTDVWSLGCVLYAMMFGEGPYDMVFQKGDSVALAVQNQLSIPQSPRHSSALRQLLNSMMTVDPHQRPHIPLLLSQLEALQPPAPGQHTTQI

[6] = biological target: Phosphorylase b kinase gamma catalytic chain, liver/testis isoform (Homo sapiens, UniProt P15735, F290L); assay: Inhibition of recombinant human PhKgamma2 F290L (1 to 301 residues) usingKKLNRTLSFAEPG as substrate incubated for 40 mins in presence of [gamma33P]ATP by radiometric scintillation counting analysis
[7] = biological target: Casein kinase I isoform gamma-1 (Homo sapiens, UniProt Q9HCP0); assay: Inhibition of recombinant human CK1gamma1(25 to 355 residues) using KRRRALS(p)VAS as substrate incubated for 40 mins in presence of [gamma-33ATP] by radiometric scintillation counting analysis
Chain of Casein kinase I isoform gamma-1 (Q9HCP0 whole entry, the tested form may be a part, canonical isoform): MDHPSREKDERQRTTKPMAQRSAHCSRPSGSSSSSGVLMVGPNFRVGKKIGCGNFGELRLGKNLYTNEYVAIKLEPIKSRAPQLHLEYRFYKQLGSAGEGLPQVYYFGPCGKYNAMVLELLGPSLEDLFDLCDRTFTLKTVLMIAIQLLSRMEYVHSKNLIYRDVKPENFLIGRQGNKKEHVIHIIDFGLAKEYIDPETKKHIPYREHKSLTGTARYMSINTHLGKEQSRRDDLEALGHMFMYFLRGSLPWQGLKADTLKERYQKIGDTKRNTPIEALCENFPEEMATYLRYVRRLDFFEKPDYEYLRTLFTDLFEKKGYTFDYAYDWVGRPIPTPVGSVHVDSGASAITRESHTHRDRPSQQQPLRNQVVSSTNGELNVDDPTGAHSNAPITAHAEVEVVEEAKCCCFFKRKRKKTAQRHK

[8] = biological target: Casein kinase II subunit alpha (Homo sapiens, UniProt P68400); assay: Inhibition of recombinant full length human CK2alpha1 using RRRDDDSDDD as substrate incubated 40 mins in presence of [gamma-33ATP] by radiometric scintillation counting analysis
Chain of Casein kinase II subunit alpha (P68400 whole entry, the tested form may be a part): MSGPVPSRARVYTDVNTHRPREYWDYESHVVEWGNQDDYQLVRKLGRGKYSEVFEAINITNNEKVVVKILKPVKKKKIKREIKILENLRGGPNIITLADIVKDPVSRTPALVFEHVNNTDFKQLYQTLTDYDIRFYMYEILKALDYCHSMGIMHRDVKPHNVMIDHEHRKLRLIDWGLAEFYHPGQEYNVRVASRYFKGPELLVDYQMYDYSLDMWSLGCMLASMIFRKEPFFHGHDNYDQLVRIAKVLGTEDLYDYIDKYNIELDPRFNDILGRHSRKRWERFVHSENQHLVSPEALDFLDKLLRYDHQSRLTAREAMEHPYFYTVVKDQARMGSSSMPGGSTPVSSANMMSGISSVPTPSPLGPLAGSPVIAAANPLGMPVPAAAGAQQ

[9] = biological target: LIM domain kinase 2 (Homo sapiens, UniProt P53671); assay: Inhibition of human LIMK2 in presence of 10 uM of ATP by radiometric analysis
Chain of LIM domain kinase 2 (P53671 whole entry, the tested form may be a part): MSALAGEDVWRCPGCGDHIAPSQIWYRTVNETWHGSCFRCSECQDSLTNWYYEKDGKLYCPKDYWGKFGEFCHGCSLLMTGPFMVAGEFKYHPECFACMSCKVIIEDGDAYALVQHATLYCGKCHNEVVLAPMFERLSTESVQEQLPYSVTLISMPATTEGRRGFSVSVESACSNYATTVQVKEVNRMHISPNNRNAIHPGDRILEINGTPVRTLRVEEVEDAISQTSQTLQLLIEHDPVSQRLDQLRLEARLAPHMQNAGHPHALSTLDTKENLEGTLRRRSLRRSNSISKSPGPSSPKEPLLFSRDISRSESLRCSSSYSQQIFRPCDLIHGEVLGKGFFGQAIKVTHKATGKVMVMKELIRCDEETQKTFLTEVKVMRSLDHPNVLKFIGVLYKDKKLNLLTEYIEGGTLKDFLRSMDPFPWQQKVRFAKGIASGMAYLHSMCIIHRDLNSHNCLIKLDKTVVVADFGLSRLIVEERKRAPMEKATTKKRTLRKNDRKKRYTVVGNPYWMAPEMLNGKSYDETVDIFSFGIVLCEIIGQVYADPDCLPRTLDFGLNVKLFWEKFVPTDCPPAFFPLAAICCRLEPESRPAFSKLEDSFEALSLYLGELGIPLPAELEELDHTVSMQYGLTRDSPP

[10] = biological target: Testis-specific serine/threonine-protein kinase 2 (Homo sapiens, UniProt Q96PF2); assay: Inhibition of recombinant full-length human TSSK2 using KKKVSRSGLYRSP as substrate incubated for 40 mins in presence of [gamma33P]ATP by radiometric scintillation counting analysis
[11] = biological target: Serine/threonine-protein kinase D1 (Homo sapiens, UniProt Q15139); assay: Inhibition of recombinant full-length human PKCmu R135A mutant using KKLNRTLSVA as substrate incubated for 40 mins in presence of [gamma33P]ATP by radiometric scintillation counting analysis
[12] = biological target: Serine/threonine-protein kinase ICK (Homo sapiens, UniProt Q9UPZ9); assay: Inhibition of human recombinant ICK (1 to 312 residues) using RRRFRPASPLRGP as substrate after 40 mins by [gamma-33ATP] by radiometric scintillation counting analysis
[13] = biological target: Calcium/calmodulin-dependent protein kinase type II subunit alpha (Homo sapiens, UniProt Q9UQM7); assay: Inhibition of recombinant full length human CaMK2alpha using KKLNRTLSFAEPG as substrate incubated for 40 mins in presence of [gamma-33ATP] by radiometric scintillation counting analysis
[14] = biological target: Hepatocyte growth factor receptor (Homo sapiens, UniProt P08581, D1228N); assay: Inhibition of recombinant human MET A1209G/V1290L/D1246N triple mutant (974 to end residues) using KKKGQEEEYVFIE as substrate incubated for 40 mins in presence of [gamma-33ATP by radiometric scintillation counting analysis
Chain of Hepatocyte growth factor receptor (P08581 25-1390 D1228N limits assumed): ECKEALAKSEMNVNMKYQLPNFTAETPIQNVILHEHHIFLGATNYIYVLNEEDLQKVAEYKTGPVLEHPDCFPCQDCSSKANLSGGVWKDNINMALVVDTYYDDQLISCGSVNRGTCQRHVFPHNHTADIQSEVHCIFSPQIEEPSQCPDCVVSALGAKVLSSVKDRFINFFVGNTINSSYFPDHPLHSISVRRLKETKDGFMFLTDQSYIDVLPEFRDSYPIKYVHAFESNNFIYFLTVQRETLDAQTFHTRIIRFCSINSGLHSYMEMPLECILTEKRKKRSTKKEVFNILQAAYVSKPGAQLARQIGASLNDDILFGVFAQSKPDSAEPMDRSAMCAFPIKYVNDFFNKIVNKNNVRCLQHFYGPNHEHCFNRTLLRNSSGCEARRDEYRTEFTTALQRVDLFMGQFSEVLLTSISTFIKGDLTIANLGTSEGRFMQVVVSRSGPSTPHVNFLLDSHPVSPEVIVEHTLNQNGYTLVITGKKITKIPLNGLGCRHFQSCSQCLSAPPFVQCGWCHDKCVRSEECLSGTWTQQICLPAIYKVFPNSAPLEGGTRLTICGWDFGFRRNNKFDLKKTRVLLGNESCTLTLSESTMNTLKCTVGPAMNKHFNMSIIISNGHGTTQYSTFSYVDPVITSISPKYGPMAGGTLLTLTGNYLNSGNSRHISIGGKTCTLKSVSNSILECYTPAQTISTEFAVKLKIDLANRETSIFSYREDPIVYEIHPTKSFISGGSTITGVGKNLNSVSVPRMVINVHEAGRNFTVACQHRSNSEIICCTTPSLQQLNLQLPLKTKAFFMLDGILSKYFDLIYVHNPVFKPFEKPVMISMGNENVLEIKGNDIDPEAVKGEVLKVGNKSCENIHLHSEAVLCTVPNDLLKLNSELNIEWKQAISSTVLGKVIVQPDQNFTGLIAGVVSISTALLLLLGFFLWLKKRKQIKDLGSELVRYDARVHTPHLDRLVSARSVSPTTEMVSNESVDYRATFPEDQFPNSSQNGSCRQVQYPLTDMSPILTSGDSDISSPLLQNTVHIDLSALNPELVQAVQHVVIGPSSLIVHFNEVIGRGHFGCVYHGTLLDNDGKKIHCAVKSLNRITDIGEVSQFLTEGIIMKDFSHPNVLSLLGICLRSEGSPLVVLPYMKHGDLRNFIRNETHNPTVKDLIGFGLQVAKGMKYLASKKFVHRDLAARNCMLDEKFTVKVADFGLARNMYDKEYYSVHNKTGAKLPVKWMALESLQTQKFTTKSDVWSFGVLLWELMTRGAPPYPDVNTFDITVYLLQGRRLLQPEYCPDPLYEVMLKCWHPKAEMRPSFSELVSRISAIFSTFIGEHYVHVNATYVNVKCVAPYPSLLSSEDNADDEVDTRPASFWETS

[15] = biological target: Serine/threonine-protein kinase Chk2 (Homo sapiens, UniProt O96017, I157T); assay: Inhibition of recombinant human CHK2 I157T mutant (5 to end residues) using KKKVSRSGLYRSP as substrate incubated for 40 mins in presence of [gamma-33ATP] by radiometric scintillation counting analysis
[16] = biological target: Ribosomal protein S6 kinase alpha-2 (Homo sapiens, UniProt Q15349); assay: Inhibition of recombinant full length human Rsk3 using KKKNRTLSVA as substrate incubated for 40 mins in presence of [gamma33P]ATP by radiometric scintillation counting analysis
[17] = biological target: Calcium/calmodulin-dependent protein kinase type II subunit beta (Homo sapiens, UniProt Q13554); assay: Inhibition of recombinant human CaMK2beta (1 to 315 residues) using calmodulin a substrate incubated for 40 mins in presence of [gamma-33ATP] by radiometric scintillation counting analysis
[18] = biological target: Serine/threonine-protein kinase BRSK2 (Homo sapiens, UniProt Q8IWQ3); assay: Inhibition of recombinant human BRSK2 (2 to end residues) using KKLNRTLSFAEPG substrate incubated for 40 mins in presence of [gamma-33ATP] by radiometric scintillation counting analysis
Chain of Serine/threonine-protein kinase BRSK2 (Q8IWQ3 whole entry): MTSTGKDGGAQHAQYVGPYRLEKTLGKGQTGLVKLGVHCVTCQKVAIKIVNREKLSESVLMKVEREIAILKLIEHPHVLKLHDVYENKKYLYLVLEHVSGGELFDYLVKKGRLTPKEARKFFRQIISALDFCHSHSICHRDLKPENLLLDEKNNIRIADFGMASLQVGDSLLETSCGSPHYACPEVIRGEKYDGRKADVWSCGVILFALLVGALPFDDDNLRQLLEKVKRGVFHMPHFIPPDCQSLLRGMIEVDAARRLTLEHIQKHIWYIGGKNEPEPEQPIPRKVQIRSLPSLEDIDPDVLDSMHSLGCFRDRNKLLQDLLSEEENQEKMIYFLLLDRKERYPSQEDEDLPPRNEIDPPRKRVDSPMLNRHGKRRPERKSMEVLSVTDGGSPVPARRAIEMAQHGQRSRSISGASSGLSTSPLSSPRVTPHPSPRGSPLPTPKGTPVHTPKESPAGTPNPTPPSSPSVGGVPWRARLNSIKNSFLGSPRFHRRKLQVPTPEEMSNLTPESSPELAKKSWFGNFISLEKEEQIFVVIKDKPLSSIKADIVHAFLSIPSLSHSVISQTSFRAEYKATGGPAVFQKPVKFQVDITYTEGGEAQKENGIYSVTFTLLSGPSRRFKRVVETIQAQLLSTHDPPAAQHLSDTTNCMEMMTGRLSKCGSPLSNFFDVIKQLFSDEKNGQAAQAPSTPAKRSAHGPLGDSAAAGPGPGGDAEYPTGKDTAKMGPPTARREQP

[19] = Inhibition of recombinant human EphB2 A848S/K918E double mutant (560 to end residues) using poly(Glu, Tyr) 4:1 as substrate after 40 mins in presence of [gamma-33ATP] by radiometric scintillation counting analysis
[20] = biological target: Serine/threonine-protein kinase WNK3 (Homo sapiens, UniProt Q9BYP7); assay: Inhibition of recombinant human WNK3 (1 to 434 residues) using myelin basic protein as substrate incubated for 40 mins in presence of [gamma33P]ATP by radiometric scintillation counting analysis
[21] = biological target: Activin receptor type-1-like (Homo sapiens, UniProt P37023); assay: Inhibition of human recombinant ALK1 (142 to end residues) using casein as substrate incubated for 40 mins in presence of [gamma-33P]ATP by radiometric scintillation counting analysis
[22] = biological target: MAP/microtubule affinity-regulating kinase 3 (Homo sapiens, UniProt P27448); assay: Inhibition of recombinant full length human MARK3 using KKKVSRSGLYRSP as substrate incubated for 40 mins in presence of [gamma-33ATP by radiometric scintillation counting analysis
[23] = biological target: Serine/threonine-protein kinase N1 (Homo sapiens, UniProt Q16512, V901I); assay: Inhibition of recombinant human PRK1 V901I (498 to end residues) using KKLNRTLSFAEPG as substrate incubated for 40 mins in presence of [gamma33P]ATP by radiometric scintillation counting analysis
[24] = biological target: Serine/threonine-protein kinase TBK1 (Homo sapiens, UniProt Q9UHD2); assay: Inhibition of recombinant full length human TBK1 using KRRRALS(p)VAS as substrate incubated for 40 mins in presence of [gamma33P]ATP by radiometric scintillation counting analysis
[25] = biological target: Calcium/calmodulin-dependent protein kinase type II subunit gamma (Homo sapiens, UniProt Q13555); assay: Inhibition of recombinant human CaMK2gamma (1 to 330 residues) using calmodulin as substrate incubated for 40 mins in presence of [gamma-33ATP] by radiometric scintillation counting analysis
Chain of Calcium/calmodulin-dependent protein kinase type II subunit gamma (Q13555 whole entry, the tested form may be a part): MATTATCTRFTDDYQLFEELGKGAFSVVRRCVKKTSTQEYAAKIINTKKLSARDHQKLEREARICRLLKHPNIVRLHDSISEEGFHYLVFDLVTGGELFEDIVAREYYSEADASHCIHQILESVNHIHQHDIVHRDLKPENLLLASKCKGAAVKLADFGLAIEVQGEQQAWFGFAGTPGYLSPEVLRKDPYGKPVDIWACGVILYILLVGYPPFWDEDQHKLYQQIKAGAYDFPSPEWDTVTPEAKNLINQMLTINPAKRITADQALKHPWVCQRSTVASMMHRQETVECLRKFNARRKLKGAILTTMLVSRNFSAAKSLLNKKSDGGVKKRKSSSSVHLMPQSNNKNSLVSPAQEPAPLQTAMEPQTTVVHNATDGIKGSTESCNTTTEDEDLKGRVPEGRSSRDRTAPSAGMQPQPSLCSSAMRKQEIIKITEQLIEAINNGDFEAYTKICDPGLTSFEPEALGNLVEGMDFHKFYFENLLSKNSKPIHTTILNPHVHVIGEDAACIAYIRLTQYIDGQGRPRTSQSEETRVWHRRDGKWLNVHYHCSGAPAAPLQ

[26] = biological target: Insulin-like growth factor 1 receptor (Homo sapiens, UniProt P08069); assay: Inhibition of human recombinant activated IGF1R (959 to end residues) using KKKSPGEYVNIEF as substrate after 40 mins by [gamma-33ATP] by radiometric scintillation counting analysis

## CN(C)c1ccc(C(=O)Nc2cccc(NC(=O)COc3ccc4c(=O)ccoc4c3)c2)cc1
[1]
  IC50: > 10 µM
[2]
  IC50: > 10 µM
[3]
  IC50: > 10 µM
[4]
  IC50: > 10 µM
[5]
  IC50: > 10 µM
[6]
  IC50: > 10 µM
[7]
  IC50: > 10 µM
[8]
  IC50: > 10 µM
[9]
  IC50: 0.046 µM
[10]
  IC50: > 10 µM
[11]
  IC50: > 10 µM
[12]
  IC50: > 10 µM
[13]
  IC50: > 10 µM
[14]
  IC50: > 10 µM
[15]
  IC50: > 10 µM
[16]
  IC50: > 10 µM
[17]
  IC50: > 10 µM
[18]
  IC50: > 10 µM
[19]
  IC50: > 10 µM
[20]
  IC50: > 10 µM
[21]
  IC50: > 10 µM
[22]
  IC50: > 10 µM
[23]
  IC50: > 10 µM
[24]
  IC50: > 10 µM
[25]
  IC50: > 10 µM
[26]
  IC50: > 10 µM
